From patent publication US5428038A, “Benzopyranones, a method for producing them and uses therefor” (Dr. Willmar Schwabe GmbH & Co., priority 1991, dated 1995)

What was measured:
[1] = test system: ovalbumin-induced anaphylactic paw edema; experiment: Passive rat paw anaphylaxy (inhibition of edema volume; antiallergic and anti-inflammatory); assay type: in vivo, male Sprague-Dawley rats; conditions: for inhibition in vivo at 25 mg/kg: 25 mg/kg p.o. 1 h before test; for inhibition in vivo at 30 mg/kg: 30 mg/kg p.o. 1 h before test
Procedure: The determination of the antiallergic and anti-inflammatory properties of the compounds in accordance with the invention was using a passive rat paw anaphylaxy model.
Male Sprague-Dawley rats were utilized for all tests. The animals were kept under standardized environmental conditions with free access to food and water. For sensitization to the antigen 100 μl of a mouse antiserum to ovalbumin was injected sublplantarly into the left rear paw. […] The opposite paw was for control injected subplantarly only with 100 μl of the solvent (sterile physiological NaCl solution). Overnight the investigated animals were deprived of food but had water ad lib.
Per group in all tests between 6 and 8 animals were used. One hour later the anaphylactic reaction was caused by the intravenous injection of 10 mg/10 ml/kg ovalbumin in physiological NaCl solution. […] The edema volume was calculated from the difference between the values of the two paws. The antiallergic action is in this case expressed as a percentage inhibition of the edema volume of the animals in the test group as compared with control groups undergoing parallel investigation. […] The determination of the ED50 values was performed by linear regression after log transformation of the administered doses, at least three dosage rates being employed.

NMDA-induced death = experiment: NMDA test (25 mg/kg i.v.), prevention of NMDA-induced death (neuroprotective efficacy); assay type: in vivo, male NMRI mice; conditions: Mus musculus, po, NMDA 25 mg/kg i.v.; for ED50: 1 h, dose protecting 50% of animals against NMDA-induced death one hour after application; for responders at 100 mg/kg: 100 mg/kg p.o. 1 h before test; for responders at 25 mg/kg: 25 mg/kg p.o. 1 h before test; for responders at 5 mg/kg: 5 mg/kg p.o. 1 h before test
Procedure: In order to determine the neuroprotective and anticonvulsive activity of the compounds in accordance with the invention of the general formula I, two slightly different methods were employed as follows: […]
1. In order to determine the neuroprotective efficacy NMDA at a rate of 25 mg/kg/10 ml was administered intravenously to male NMRI mice with a body weight of 20 to 25 g. As a consequence of this application the animals suffer clonic and partly tonic convulsions, which lead to death. As a criterion for the efficacy of the investigated compounds prevention of death is used.
All animals used in the investigations had free access to food and water prior to the experiments. The test and reference substances were all administered as a suspension in 0.2% agar or water, partly by the intermediary of solution promoters such as for instance PEG-400, perorally using an esophageal probe. Control animals received the same volumes of the solvent with optional solution promoters. One hour after the application of the substance NMDA was administered intravenously and the animals observed for the occurrence of convulsions.
In table 1 the results of the tests (NMDA 25 mg i.v.) performed in accordance with method 1 are compiled with dosages of 5-100 mg of the compounds in accordance with the invention per kg of body weight as compared with known NMDA-antagonists. As a percentage efficacy the percentage of surviving animals is used.
The determination of the ED50 values was performed in accordance with the method described in Lichtfield and Wilcoxon, J. Pharmacol. exp. Therapeut. 96, 99 (1949) in each case with 4 to 5 groups of 10 animals per dosage rate.

[2] = Rattus norvegicus, po, read-out: Protective action (percentage inhibition of edema volume)
[3] = read-out: Protective action (percentage of surviving animals)
[4] = Rattus norvegicus, po, p.o. 1 h before test, linear regression after log transformation of doses

## COc1cc2oc(=O)ccc2cc1OCC(O)CN1CCC(C(O)(c2ccc(F)cc2)c2ccc(F)cc2)CC1 (racemic) [Example 25, (±)-6-{3-[4-(bis(4-fluorophenyl)hydroxymethyl)-1-piperidinyl]-2-hydroxypropoxy}-7-methoxy-2H-1-benzopyran-2-one]
[1]; [2]
  inhibition in vivo at 25 mg/kg: 43%
NMDA-induced death
  ED50: 77 mg/kg
NMDA-induced death; [3]
  responders at 100 mg/kg: 100%

## COc1cc2ccc(=O)oc2cc1OCCCN1CCN(C(c2ccc(F)cc2)c2ccc(F)cc2)CC1 [Example 8, 7-{3-[4-(bis(4-fluorophenyl)methyl)-1-piperazinyl]propoxy}-6-methoxy-2H-1-benzopyran-2-one]
[1]; [2]
  inhibition in vivo at 25 mg/kg: 35%
NMDA-induced death; [3]
  responders at 100 mg/kg: 62.5%

## CC(C)Oc1cc2ccc(=O)oc2cc1OCCCN1CCC(c2ccccc2)CC1 [Example 12, 6-(1-methylethoxy)-7-[3-(4-phenyl-1-piperidinyl)propoxy]-2H-1-benzopyran-2-one]
[1]; [2]
  inhibition in vivo at 25 mg/kg: 12%
NMDA-induced death; [3]
  responders at 25 mg/kg: 62.5%

## COc1cc2ccc(=O)oc2cc1OCCCN1CCC(C(O)(c2ccc(F)cc2)c2ccc(F)cc2)CC1 [Example 14, 7-{3-[4-(bis(4-fluorophenyl)hydroxymethyl)-1-piperidinyl]propoxy}-6-methoxy-2H-1-benzopyran-2-one]
[1]; 25 mg/kg p.o.
  Action remains for a period with full effect: 24 h
[1]; [2]
  inhibition in vivo at 25 mg/kg: 81%
[1]; [4]
  ED50: 2.4 mg/kg
NMDA-induced death; [3]
  responders at 25 mg/kg: 37.5%

## COc1cc2oc(=O)ccc2cc1OCCCN1CCC(=C(c2ccc(F)cc2)c2ccc(F)cc2)CC1 [Example 15, 6-{3-[4-(bis(4-fluorophenyl)methylene)-1-piperidinyl]propoxy}-7-methoxy-2H-1-benzopyran-2-one]
[1]; [2]
  inhibition in vivo at 25 mg/kg: 60%
NMDA-induced death; [3]
  responders at 25 mg/kg: 50%

## COc1cc2oc(=O)ccc2cc1OCCCN1CCC(C(c2ccccc2)c2ccccc2)CC1 [Example 16, 6-{3-[4-(diphenylmethyl)-1-piperidinyl]propoxy}-7-methoxy-2H-1-benzopyran-2-one]
[1]; [2]
  inhibition in vivo at 25 mg/kg: 60%
NMDA-induced death; [3]
  responders at 100 mg/kg: 75%

## COc1cc2ccc(=O)oc2cc1OCCCN1CCC(C(O)(c2ccccc2)c2ccccc2)CC1 [Example 17, 7-{3-[4-(diphenylhydroxymethyl)-1-piperidinyl]-propoxy}-6-methoxy-2H-1-benzopyran-2-one]
[1]; [2]
  inhibition in vivo at 25 mg/kg: 83%
NMDA-induced death; [3]
  responders at 100 mg/kg: 37.5%

## COc1cc2oc(=O)cc(C)c2cc1OCCCN1CCN(c2ccccc2)CC1 [Example 26, 7-methoxy-4-methyl-6-[3-(4-phenyl-1-piperazinyl)propoxy]-2H-1-benzopyran-2-one]
[1]; [2]
  inhibition in vivo at 25 mg/kg: 66%
NMDA-induced death; [3]
  responders at 25 mg/kg: 62.5%

## COc1cccc(N2CCN(CCCOc3cc4c5c(c(=O)oc4cc3OC)CCC5)CC2)c1 [Example 55, 2,3-dihydro-7-methoxy-8-{3-[4-(3-methoxyphenyl)-1-piperazinyl]propoxy}cyclopenta[c][1]benzopyran-4(1H)-one]
NMDA-induced death
  ED50: 1.1 mg/kg
NMDA-induced death; [3]
  responders at 5 mg/kg: 100%

## COc1ccc(N2CCN(CCCOc3cc4c5c(c(=O)oc4cc3OC)CCC5)CC2)cc1 [Example 56, 2,3-dihydro-7-methoxy-8-{3-[4-(4-methoxyphenyl)-1-piperazinyl]propoxy}cyclopenta[c][1]benzopyran-4(1H)-one]
NMDA-induced death
  ED50: 2.6 mg/kg
NMDA-induced death; [3]
  responders at 5 mg/kg: 87.5%

## CCOc1ccccc1N1CCN(CCCOc2cc3c4c(c(=O)oc3cc2OC)CCC4)CC1 [Example 57, 8-{3-[4-(2-ethoxyphenyl)-1-piperazinyl]propoxy}-2,3-dihydro-7-methoxy-cyclopenta[c][1]benzopyran-4(1H)-one]
NMDA-induced death; [3]
  responders at 5 mg/kg: 100%

## COc1cc2oc(=O)c3c(c2cc1OCCCN1CCN(c2ccccc2Cl)CC1)CCC3 [Example 58, 8-{3-[4-(2-chlorophenyl)-1-piperazinyl]propoxy}-2,3-dihydro-7-methoxy-cyclopenta[c][1]benzopyran-4(1H)-one]
NMDA-induced death
  ED50: 1.8 mg/kg
NMDA-induced death; [3]
  responders at 5 mg/kg: 100%

## COc1cc2oc(=O)c3c(c2cc1OCCCN1CCN(c2ccccc2C)CC1)CCC3 [Example 59, 2,3-dihydro-7-methoxy-8-{3-[4-(2-methylphenyl)-1-piperazinyl]propoxy}cyclopenta[c][1]benzopyran-4(1H)-one]
NMDA-induced death
  ED50: 1.1 mg/kg
NMDA-induced death; [3]
  responders at 5 mg/kg: 100%

## COc1cc2oc(=O)c3c(c2cc1OCCCN1CCN(c2ccccc2O)CC1)CCC3 [Example 60, 2,3-dihydro-8-{3-[4-(2-hydroxyphenyl)-1-piperazinyl]propoxy}-7-methoxy-cyclopenta[c][1]benzopyran-4(1H)-one]
NMDA-induced death; [3]
  responders at 5 mg/kg: 62.5%

## COc1cc2oc(=O)c3c(c2cc1OCCCN1CCN(c2ccc([N+](=O)[O-])cc2)CC1)CCC3 [Example 61, 2,3-dihydro-7-methoxy-8-{3-[4-(4-nitrophenyl)-1-piperazinyl]propoxy}cyclopenta[c][1]benzopyran-4(1H)-one]
NMDA-induced death; [3]
  responders at 100 mg/kg: 25%

## COc1cc2oc(=O)c3c(c2cc1OCCCN1CCN(c2ccccn2)CC1)CCC3 [Example 62, 2,3-dihydro-7-methoxy-8-{3-[4-(2-pyridinyl)-1-piperazinyl]propoxy}cyclopenta[c][1]benzopyran-4(1H)-one]
NMDA-induced death; [3]
  responders at 25 mg/kg: 87.5%

## COc1cc2oc(=O)c3c(c2cc1OCCCN1CCN(c2ncccn2)CC1)CCC3 [Example 63, 2,3-dihydro-7-methoxy-8-{3-[4-(2-pyrimidinyl)-1-piperazinyl]propoxy}cyclopenta[c][1]benzopyran-4(1H)-one]
NMDA-induced death; [3]
  responders at 25 mg/kg: 12.5%

## COc1cc2oc(=O)c3c(c2cc1OCCCN1CCC(Cc2ccccc2)CC1)CCC3 [Example 64]
NMDA-induced death; [3]
  responders at 25 mg/kg: 75%

## COc1cc2oc(=O)c3c(c2cc1OCCCN1CCC(C(O)(c2ccc(F)cc2)c2ccc(F)cc2)CC1)CCC3 [Example 65, 8-{3-[4-(bis(4-fluorophenyl)hydroxymethyl)-1-piperidinyl]propoxy}-2,3-dihydro-7-methoxy-cyclopenta[c][1]benzopyran-4(1H)-one]
NMDA-induced death; [3]
  responders at 100 mg/kg: 12.5%

## COc1cc2oc(=O)c3c(c2cc1OCCCN1CCN(c2ccccc2F)CC1)CCC3 [Example 66, 8-{3-[4-(2-fluorophenyl)-1-piperazinyl]propoxy}-2,3-dihydro-7-methoxy-cyclopenta[c][1]benzopyran-4(1H)-one]
NMDA-induced death; [3]
  responders at 5 mg/kg: 100%

## COc1ccc(CCN2CCC(Nc3nc4ccccc4n3Cc3ccc(F)cc3)CC2)cc1 [astemizole, reference compound]
[1]; Rattus norvegicus, po, 10 mg/kg p.o. 1 h before test, read-out: Protective action (percentage inhibition of edema volume)
  inhibition in vivo at 10 mg/kg: 70%
[1]; [4]
  ED50: 3.1 mg/kg

## O=C(O)c1cc(=O)c2c(OCC(O)COc3cccc4oc(C(=O)O)cc(=O)c34)cccc2o1 [cromoglycate, reference compound]
[1]; Rattus norvegicus, 2.25 mg/kg, intravenous immediately prior to test, read-out: Protective action (percentage inhibition of edema volume)
  inhibition in vivo at 2.25 mg/kg: 58%
[1]; Rattus norvegicus, intravenous treatment immediately prior to test (footnote), head says p.o.
  ED50: 1.1 mg/kg
[1]; oral
  oral effectiveness: orally not effective

## CN(C)CCOC(c1ccccc1)c1ccccc1 [diphenhydramine, reference compound]
[1]; Rattus norvegicus, po, 100 mg/kg p.o. 1 h before test, read-out: Protective action (percentage inhibition of edema volume)
  inhibition in vivo at 100 mg/kg: 54%
[1]; [4]
  ED50: 73 mg/kg

## CNC1(c2ccccc2Cl)CCCCC1=O (stereo not drawn) [ketamine, reference compound]
NMDA-induced death; 20 mg/kg p.o. 1 h before test, read-out: Protective action (percentage of surviving animals)
  responders at 20 mg/kg: 0%

## CN1CCC(=C2c3ccccc3CC(=O)c3sccc32)CC1 [ketotifen, reference compound]
[1]; [2]
  inhibition in vivo at 30 mg/kg: 77%
[1]; [4]
  ED50: 5.6 mg/kg

## O=c1[nH]c2ccccc2n1CCCN1CCN(C(c2ccccc2)c2ccccc2)CC1 [oxatomide, reference compound]
[1]; [2]
  inhibition in vivo at 30 mg/kg: 75%
[1]; [4]
  ED50: 7.3 mg/kg

## Cc1c(C)c2ccc(OCCCN3CCN(Cc4ccc(Cl)cc4)CC3)cc2oc1=O [picumast, reference compound]
[1]; [2]
  inhibition in vivo at 25 mg/kg: -21%
